According to PMC10094136, “Neurog1-Derived Peptides RMNE1 and DualPep-Shine Penetrate the Skin and Inhibit Melanin Synthesis by Regulating MITF Transcription” (International Journal of Molecular Sciences, 2023):
Where a SMILES comes first, the peptide text is derived from it.

Tests used:
HaCaT cells = assay: Cell viability CCK-8 assay, HaCaT; type: cell-based; details: up to highest concentration, 72 h (legend; method says 24 h), CCK8
Procedure: (§1) (A) B16F10 and HaCaT cells were treated with the indicated concentration of DualPep-Shine for 72 h, and relative cell viability was measured using Cell Counting Kit 8 (CCK8) assay. Doxorubicin was used for positive control. (B) Phorbol 12-myristate 13-acetate (PMA)-differentiated THP-1 cells were treated with different concentrations of DualPep-Shine for 24 h. TNF-α from supernatants was measured using the enzyme-linked immunosorbent assay (ELISA). (C) DualPep-Shine was incubated with indicated temperature conditions for 45 days. B16F10 cells were treated with different concentrations for 72 h, and melanin contents were measured at OD 405 nm. The results are presented as mean ± SD, and statistical significance was analyzed with Student’s t-test (NS: not significant, *** p < 0.001).
(§2) Cell viability was measured using a CCK-8 assay (Dojindo, Tokyo, Japan). HaCaT and B16F10 cells were cultured in a 96-well plate at a 6 × 10^3 cells/well and incubated in a complete medium at 37 °C with 5% CO2 overnight. Each cell type was treated with different concentrations of peptides for 24 h. After removing the medium, CCK-8 solution was added in a dark room at 37 °C. Absorbance was measured at 450 nm using a microplate reader.

B16F10 cells [1] = assay: Localization of penetrated peptide by confocal microscopy; type: cell-based; details: B16F10, FITC-conjugated peptide, 2 h, Hoechst 33342 nucleus staining
Procedure: Figure 3 DualPep-Shine regulates the expression of melanogenic genes and inhibits the promoter activity of MITF-M. (A) B16F10 cells were treated with various concentrations of DualPep-Shine for 72 h. Melanin contents were determined at OD 405 nm. (B) DualPep-Shine was treated with α-MSH for 24 h, and whole-cell lysates were subjected to Western blotting. Indicated antibodies were used to analyze melanogenic proteins. (C) mRNA levels of MITF, Tyr, TRP1, and TRP2 were analyzed using quantitative polymerase chain reaction (qPCR) after treatment with DualPep-Shine for 12 h. The gene expression was normalized with β-actin. (D) FITC-conjugated DualPep-Shine was treated for 2 h on B16F10 cells, and its localization was visualized using confocal microscopy. Hoechst 33342 was used for nucleus staining. Bar = 10 μm. […] The results are presented as mean ± SD, and statistical significance was analyzed with Student’s t-test (** p < 0.01, *** p < 0.001).
B16F10 cells were seeded in a 24-well plate and treated with 2.5 μM of FITC conjugated TAT, RMNE1, or DualPep-Shine for 2 h. […] Penetrated peptides were evaluated via flow cytometry by measuring FITC levels. […] The cells were washed again with PBS five times, mounted on a slide glass using gel/mount solution (Biomeda, Foster City, CA, USA), and the penetrated peptides were visualized using a fluorescence microscope. […]

THP-1 cells = assay: TNF-α secretion ELISA in PMA-differentiated THP-1 cells (immunogenicity); type: cell-based; details: PMA-differentiated THP-1, up to 100 μM, 24 h
Procedure: as §1

[2] = Storage stability of peptide, read out as anti-melanin activity in B16F10 cells; type: physicochemical; details: peptide stored at −20 °C, 25 °C and 37 °C for 45 days; then B16F10 72 h, melanin at OD 405 nm
Procedure: as §1
B16F10 cells (1 × 10^5) were seeded in a 24-well plate and incubated for 16 h. The cells were treated with α-MSH (Sigma-Aldrich, Darmstadt, Germany) and peptides for 72 h. The cells were incubated at 37 °C in 5% CO2. […] Then, melanin levels were determined by measuring the absorbance at 405 nm using a microplate reader. […] B16F10 cells were then treated with different concentrations of peptides, and melanin contents were measured to check the stability of DualPep-Shine.

B16F10 cells [3] = assay: Cell viability CCK-8 assay, B16F10; type: cell-based; details: B16F10, up to highest concentration, 72 h (legend; method says 24 h), CCK8
Procedure: as §1, §2

For `C[C@@H](O)[C@H](NC(=O)[C@H](CCCNC(=N)N)NC(=O)CNC(=O)[C@H](CCCNC(=N)N)NC(=O)[C@H](CCCNC(=N)N)NC(=O)[C@H](CCCNC(=N)N)NC(=O)[C@H](CCCNC(=N)N)NC(=O)[C@H](CCCNC(=N)N)NC(=O)[C@H](CCC(=O)O)NC(=O)[C@H](CCC(N)=O)NC(=O)[C@H](CCC(=O)O)NC(=O)[C@@H](N)CC(=O)O)C(=O)N[C@@H](CCCNC(=N)N)C(=O)O` [DualPep-Shine] (H-DEQERRRRRGRTR-OH), the Cell viability (HaCaT cells) was “not affected”, the Intracellular localization (B16F10 cells [1]) was “mainly localized in the nucleus” and the “TNF-α secretion (immunogenicity)” value (THP-1 cells) was “did not induce tumor necrosis factor α (TNF-α) secretion”. For the same compound, the “Anti-pigmentation activity after pre-incubation (stability)” value [2] was “maintained” and the Cell viability (B16F10 cells [3]) was “not affected”.
